Assay results as given in patent publication US20130071482A1, “BLOCK COPOLYMER CROSS-LINKED NANOASSEMBLIES AS MODULAR DELIVERY VEHICLES” (THE UNIVERSITY OF KENTUCKY RESEARCH FOUNDATION, priority 2011, published 2013).

Key:
[1] = Drug release experiment (dialysis of DOX-loaded particles, sink condition); format: physicochemical; details: 37° C., from AUC of release-time curve, normalized to initial drug loading (100%)
Protocol: Proton nuclear magnetic resonance (^1H-NMR, Varian, 400 MHz) measurements were used to determine the compositions of block copolymers and nanoassemblies in DMSO-d6 and D2O, respectively. The number average molecular weights (Mn) of block copolymers and nanoassemblies were calculated by gel permeation chromatography (GPC, Shimadzu LC20, Japan) equipped with RI and UV detectors, using PEG standard and a phosphate buffered saline (PBS, 1×) mobile phase. Particle sizes of nanoassemblies were determined by dynamic light scattering (DLS, Zetasizer Nano 90, Malvern, UK) measurements at a 173° fixed angle. All samples were prepared in aqueous solutions at 2 mg/mL and filtered through 0.22 μm filters prior to GPC and DLS analyses. DOX loading and release were quantified using ultraviolet-visible spectrophotometry spectroscopy (UV-Vis, absorbance at 480 nm, SpectraMax M5, Molecular Devices, USA).
All particles entrapping DOX were dissolved in deionized water (0.5 mg/mL), and transferred to six dialysis cassettes (MWCO 10 kDa). […] Drug release patterns were monitored under the sink condition as the volume of dialysis medium was maintained 3,000 times greater (5 L) than the volume of the sample solution in the dialysis cassettes (1.65 mL/cassette, n=3). […] DOX remaining in each dialysis cassette was measured at 0, 1, 3, 6, 10, 24, 34, and 48 h. […]

[2] = tested on: human non-small cell lung cancer A549 cell line; assay: Cytotoxicity assay (resazurin cell viability); format: cell-based; details: A549 cells
Protocol: A human non-small cell lung cancer A549 cell line was used to determine the cytotoxicity of empty nanoassemblies, DOX-loaded nanoassemblies, and free DOX. Cells were seeded in a 96-well plate (5,000 cells/well) in 100 μL F12K cell culture medium containing 10% FBS. After 24 hours, serial dilutions of the samples were added to the cell plate. Cells were then incubated at 37° C., 5% CO2, for 72 hours, followed by cell viability measurement using a resazurin assay that indicates mitochondrial metabolic activity in live cells. Resazurin solution in PBS (10 μL, 1 mM) was added to the sample-treated cells at the end of the 72-hour treatment period. Three hours later, the fluorescence of resorufin, metabolited resazurin, was measured at 560 nm (excitation)/590 nm (emission). The half maximal inhibitory concentration (IC50) was calculated with Prism software (GraphPad, USA).

## COc1cccc2c1C(=O)c1c(O)c3c(c(O)c1C2=O)C[C@@](O)(C(=O)CO)C[C@@H]3O[C@H]1C[C@H](N)[C@H](O)[C@H](C)O1.Cl [Free DOX, doxorubicin hydrochloride]
[1]; pH 5.0, 48 h
  Accumulated drug release at pH 5.0 in 48 h: 100%
[1]; pH 7.4, 48 h
  Accumulated drug release at pH 7.4 in 48 h: 100%
[2]; 72 hours incubation, resazurin assay, DOX equivalent
  IC50: 530 ± 200 nM
[2]; IC50 relative to free DOX (fold)
  Relative cytotoxicity: 1.00
